Reference: the NIST ThermoML archive (doi:10.1021/je901020a)

Assays:
[1] = refractive index (Na D-line) (dimensionless); xn = mol fraction of the nth substance listed; details: 101 kPa, Liquid, Standard Abbe refractometry
[2] = xn = mol fraction of the nth substance listed; details: 101 kPa, Liquid; for speed of sound: Pulse-echo method

CC1CCCCC1 [methylcyclohexane] + Cc1cccc(C)c1
x1 = 1
Details	mass density, [2] [kg/m3]	refractive index, [1]	speed of sound, [2] [m/s]
298.15 K	765	1.42062	1215
313.15 K	751.9	1.41274	1150

CC1CCCCC1 [methylcyclohexane] + Cc1ccccc1C
Details	mass density, [2] [kg/m3]	refractive index, [1]	speed of sound, [2] [m/s]
298.15 K, x1 = 0.0558	868.7	1.49758	1340
298.15 K, x1 = 0.0973	863.5	1.49375	1333
298.15 K, x1 = 0.1875	852.9	1.48587	1318
298.15 K, x1 = 0.2979	839.7	1.47605	1300
298.15 K, x1 = 0.4084	827	1.46659	1283
298.15 K, x1 = 0.4965	817.1	1.45929	1271
298.15 K, x1 = 0.5946	806.3	1.45128	1259
298.15 K, x1 = 0.6948	795.5	1.44332	1246
298.15 K, x1 = 0.7944	785.2	1.43568	1235
298.15 K, x1 = 0.8912	775.6	1.42852	1225
298.15 K, x1 = 0.9497	769.9	1.42429	1219
298.15 K, x1 = 1	765	1.42062	1215
313.15 K, x1 = 0.049	856.8	1.49036	1281
313.15 K, x1 = 0.0983	850.8	1.48589	1272
313.15 K, x1 = 0.1972	838.9	1.47705	1255
313.15 K, x1 = 0.2832	828.7	1.46962	1241
313.15 K, x1 = 0.403	814.8	1.45951	1222
313.15 K, x1 = 0.5001	803.8	1.4514	1208
313.15 K, x1 = 0.598	793	1.44349	1195
313.15 K, x1 = 0.6977	782.3	1.43558	1182
313.15 K, x1 = 0.7947	772.2	1.4281	1171
313.15 K, x1 = 0.9013	761.5	1.42003	1160
313.15 K, x1 = 0.9474	756.9	1.4165	1154
313.15 K, x1 = 1	751.9	1.41274	1150
